Legend:
[1] = Inhibition of Mycobacterium tuberculosis RNA polymerase D435V mutant by rolling circle transcription assay in the absence of sigmaA factor
[2] = Inhibition of Mycobacterium tuberculosis RNA polymerase H445Y mutant by rolling circle transcription assay in the absence of sigmaA factor
[3] = Inhibition of Mycobacterium tuberculosis RNA polymerase S450L mutant by rolling circle transcription assay in the absence of sigmaA factor
[4] = Inhibition of Mycobacterium tuberculosis RNA polymerase H445Y mutant by rolling circle transcription assay in the presence of sigmaA factor
[5] = Inhibition of Mycobacterium tuberculosis RNA polymerase D435V mutant by rolling circle transcription assay in the presence of sigmaA factor
[6] = Inhibition of Mycobacterium tuberculosis RNA polymerase S450L mutant by rolling circle transcription assay in the presence of sigmaA factor
[7] = test system: Mycobacterium tuberculosis; assay: Ratio of rifalazil IC50 to compound IC50 for Mycobacterium tuberculosis RNA polymerase S450L mutant in the presence of sigmaA factor
[8] = test system: Mycobacterium tuberculosis; assay: Ratio of rifalazil IC50 to compound IC50 for Mycobacterium tuberculosis RNA polymerase D435V mutant in the presence of sigmaA factor

Row | SMILES | IC50 [1] | IC50 [2] | IC50 [3] | IC50 [4] | IC50 [5] | IC50 [6] | Ratio IC50 [7] | Ratio IC50 [8]
1 | CO[C@H]1/C=C/O[C@@]2(C)Oc3c(C)c(O)c4c(O)c(c(/C=N/N5CCN(C)CC5)c(O)c4c3C2=O)NC(=O)/C(C)=C\C=C\[C@H](C)[C@H](O)[C@@H](C)[C@@H](O)[C@@H](C)[C@H](OC(C)=O)[C@@H]1C [RIFAMPIN] | 313 µM | 830 µM | 126 µM | – | – | – | – | –
2 | CCN(CC)CCOc1cccc2oc3c4c(=O)c5c(O)c(C)c6c(c5c-3nc12)C(=O)[C@@](C)(O/C=C/[C@H](OC)[C@@H](C)[C@@H](OC(C)=O)[C@H](C)[C@H](O)[C@H](C)[C@@H](O)[C@@H](C)/C=C/C=C(/C)C(=O)N4)O6 | – | – | – | 171 µM | 20 µM | 16 µM | 7 | 26
3 | CO[C@H]1/C=C/O[C@@]2(C)Oc3c(C)c(O)c4c(=O)c(c5oc6cccc(OCCCCN7CCN(CCn8ccnc8)CC7)c6nc-5c4c3C2=O)NC(=O)/C(C)=C\C=C\[C@H](C)[C@H](O)[C@@H](C)[C@@H](O)[C@@H](C)[C@H](OC(C)=O)[C@@H]1C | – | – | – | 437 µM | 9 µM | 18 µM | 7 | 26
4 | CO[C@H]1/C=C/O[C@@]2(C)Oc3c(C)c(O)c4c(=O)c(c5oc6cccc(OCCCCN7CCN(C(=O)Cn8ccnc8)CC7)c6nc-5c4c3C2=O)NC(=O)/C(C)=C\C=C\[C@H](C)[C@H](O)[C@@H](C)[C@@H](O)[C@@H](C)[C@H](OC(C)=O)[C@@H]1C | – | – | – | 574 µM | 13 µM | 122 µM | – | 26
5 | CO[C@H]1/C=C/O[C@@]2(C)Oc3c(C)c(O)c4c(=O)c(c5oc6cc(N7CCN(CC(C)C)CC7)cc(O)c6nc-5c4c3C2=O)NC(=O)/C(C)=C\C=C\[C@H](C)[C@H](O)[C@@H](C)[C@@H](O)[C@@H](C)[C@H](OC(C)=O)[C@@H]1C [RIFALAZIL] | – | – | – | 172 µM | 541 µM | 117 µM | – | –
